Assay results as given in patent US11974990B2, “TXNIP-TRX complex inhibitors and methods of using the same” (City of Hope, priority 2018, dated 2024).
Like-named read-outs stand apart in the source and are kept apart here.

Columns and labels:
TXNIP mRNA = TXNIP mRNA expression (RT-PCR) in THP1 cells under 25 mM glucose; assay type: cell-based, human; conditions: THP1, 25 mM glucose, 5 uM compound, 72 h / three days (FIG. 13)
Method: FIGS. 9A-9B. FIG. 9A. […] THP1 cells were cultured in 25 mM glucose with the indicated concentrations of C1 for 72 h. Cell were collected for total RNA preparation. RT-PCR were performed and data shown are the mean+SEM from triplicates. Statistical analysis was performed using one-way ANOVA, *<0.0001. FIG. 9B. […] THP1 cells were cultured in 25 mM glucose and C1 (uM) as indicated for 72 hours and collected for total RNA preparation. RT-PCR was performed. Data shown are the mean+SEM from triplicates. Statistical analysis was performed using one-way ANOVA: *<0.02; **<0.0001.
FIG. 13. C1 analogs affects TXNIP mRNA expression in THP1 cells. THP1 cells were cultured in 25 mM glucose with 5 uM of compounds for 72 h. Total RNA was collected and RT-PCR was performed in triplicate and data shown are the mean+SEM. Statistical analysis was performed using one-way ANOVA: *<0.0001.
RNA extraction and quantitative RT-PCR. RNA was extracted using the Direct-zol™ RNA MiniPrep Plus (Zymo Research). […] Diluted cDNA was quantified using real-time PCR performed with Power SYBR Green qPCR MasterMix (Applied Biosystem) and 7500 real-time PCR system (Applied Biosystems). […]
RNA extraction and quantitative RT-PCR. […] Diluted cDNA was quantified using real-time PCR performed with Power SYBR Green qPCR MasterMix (Applied Biosystem) and 7500 real-time PCR system (Applied Biosystems). […]

TXNIP = conditions: as reported in the literature, cited from earlier work
TXNIP-TRX complex [1] = target: T1, TXNIP-TRX complex (Homo sapiens, UniProt Q9H3M7); assay: Co-IP of TXNIP with TRX in THP1 monocytes treated with compounds under high glucose; assay type: cell-based; conditions: THP1 cells, compounds added to cells in culture overnight, glucose to 25 mM, 72-96 h; anti-TRX IP
T1 construct: Co-immunoprecipitation (Co-IP) of TXNIP with TRX in THP 1 monocytes cells treated with compounds under high glucose condition; endogenous in cells; host or cells: THP1 human monocytes cultured in 25 mM glucose
T1 sequence (Q9H3M7 1-391): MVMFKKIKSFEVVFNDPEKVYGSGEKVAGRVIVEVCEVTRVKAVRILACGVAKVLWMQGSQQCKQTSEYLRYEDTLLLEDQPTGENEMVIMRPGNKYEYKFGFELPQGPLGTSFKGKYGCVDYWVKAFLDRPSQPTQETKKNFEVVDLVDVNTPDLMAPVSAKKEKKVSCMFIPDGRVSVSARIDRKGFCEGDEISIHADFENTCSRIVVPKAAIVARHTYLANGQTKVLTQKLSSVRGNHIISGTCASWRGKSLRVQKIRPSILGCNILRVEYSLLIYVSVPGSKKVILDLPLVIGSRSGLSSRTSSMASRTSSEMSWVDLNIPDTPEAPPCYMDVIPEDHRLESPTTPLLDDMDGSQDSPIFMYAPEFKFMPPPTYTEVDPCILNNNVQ
Method: FIGS. 4A-4B. Co-IP with anti-TRX in THP 1 cells treated with compounds under high glucose condition. THP1 cells were treated by 10 uM compounds over night, then glucose was added up to 25 mM. The cells were cultured for 72-96 h. Cell extracts were prepared using cell extract buffer (Thermo Fisher Scientific) and Co-IP were performed with mouse anti-TRX (abcam).
Assay 1: Co-immunoprecipitation (Co-IP) of TXNIP with TRX in THP 1 monocytes cells treated with compounds under high glucose condition. In this assay, we looked for compounds that can interfere with the interaction between TXNIP and TRX in THP-1 monocytes treated with HG. So here compounds are added to cells in culture. […] So we picked the candidates only if the results are repeatable.
Co-IP with compounds treated THP1 under high glucose condition. THP1 cells were treated with compounds (2.5 uM) overnight and glucose was add to 25 mM and culture for 3-5 days, then coIP were carried using co-IP protocol.
(§1) 1. Transfer the cultured cells from the culture dish to a 15-mL conical tube. 2. Centrifuge at 500×g for 2 min at 4° C. and remove the supernatant. 3. Wash with ice-cold PBS and centrifuge at 500×g for 2 min at 4° C. Remove the supernatant. 4. Repeat Step 3 twice.
5. Resuspend the cell pellet in ice-cold cell lysis buffer (1 mL per 1×10^7 cells) and incubate on ice for 10 min. 6. Sonicate cells in ice bath three times for 5 second pulses each. 7. Centrifuge at 13,000×g at 4° C. for 10 min, and transfer the supernatant to a fresh tube. Store the tube on ice for further use, or for long storage at −80° C.
8. Resuspend the magnetic beads by pipetting up and down for several times. 9. Transfer 20 μL of bead slurry to a fresh tube. Place the tube in a magnetic separation rack […]. Carefully remove the supernatant once the solution is clear. 10. […]
(§2) Note: Pre-clearing the lysate is recommended to reduce the non-specific binding. However, if the protein is detected by western blotting, pre-clearing may not be necessary unless a contaminating protein is interfering with visualization of the protein of interest. […]

TXNIP-TRX complex [2] = target: T1, TXNIP-TRX complex; assay: Co-IP using extracts from high glucose treated THP1 cells in the presence of compounds; assay type: biochemical; conditions: extracts of THP1 cells treated with 25 mM glucose 3 days; compounds added to extract (5 uM)
Method: Assay 2: Co-IP using extracts from THP 1 cells treated high glucose and in the presence of compounds. In this assay, TXNIP is already highly expressed (because the cells are treated with HG), we assume there is high concentration of TXNIP/TRX complexes in the cell extract. Co-IPs were done in these extracts through adding TRX antibody and compounds. If a compound is able to break the (pre-formed) TXNIP/TRX complex, there will be a reduced signal (band intensity) in the assay.
Co-IP with THP1 high glucose treated extract in the presence of the compounds. THP1 cells were treated with 25 mM glucose for 3 days, the cell extract were prepared. Them 300 ul extract were used for TP. Compounds were added to 5 uM Co-IP were followed according to the Co-IP protocol.
as §1
5. Resuspend the cell pellet in ice-cold cell lysis buffer (1 mL per 1×10^7 cells) and incubate on ice for 10 min. 6. […]
as §2

| SMILES | TXNIP mRNA expression (TXNIP mRNA) | TXNIP expression (TXNIP) | TXNIP expression (TXNIP; listed as Metformin) | HG-induced TXNIP-TRX co-IP band intensity (TXNIP-TRX complex [1]) | effect on pre-formed TXNIP/TRX complex (co-IP band intensity) (TXNIP-TRX complex [2]) |
| --- | --- | --- | --- | --- | --- |
| CC(=O)Nc1ccc(NC(=O)C(C)N2C(=O)c3ccncc3C2=O)cc1 (centres unmarked) [Compound A31] | displayed significant inhibitory effects on TXNIP mRNA expression |  |  |  |  |
| CN(C)C(=N)N=C(N)N [metformin, reference compound] |  | reduce TXNIP expression | can reduce the expression of TXNIP through the AMPK pathway | reduces the intensity of the band showing TXNIP-TRX binding | does not have any effect on TXNIP/TRX complex |
